Test results from patent US12421254B2, “KRAS modulators and uses thereof” (Quanta Therapeutics, Inc., priority 2023, dated 2025).

How the values were obtained:
[1] = molecular target: GST-tagged KRAS-G12D (2-169) (Homo sapiens, UniProt P01116, G12D); test: Nucleotide exchange assay (NEA), SOS-mediated, HTRF, KRAS G12D; type: biochemical; conditions: Table 2; IC50 extracted at 30 min; 20 nM SOScat; read-out: NEA-G12D (uM) IC50
Summary of the method: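 Compound preincubated 1 h at RT with 0.25 nM GST-KRAS-G12D (2-169) and anti-GST Tb donor, then 20 nM SOS1cat (564-1049) and 150 nM GTP-DY-647P1 added; pH 7.3 HEPES buffer with MgCl2 and DTT. HTRF monitored at RT; % inhibition versus DMSO and no-SOS blank, 4-parameter IC50 taken at 30 min.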

KRAS G12D/RAF1 = molecular target: T1, KRAS G12D/RAF1 (Homo sapiens, UniProt P01116, G12D); test: Protein-protein interaction (PPI) HTRF assay KRAS G12D/RAF1; type: binding; conditions: Table 2
T1 construct: KRAS (1-169) proteins were expressed in BL21 (DE3)-CodonPlus E. coli; His6-MBP (N, cleaved yes)
T1 sequence (P01116 with tags, fused parts or gaps isoform P01116-2 G12D): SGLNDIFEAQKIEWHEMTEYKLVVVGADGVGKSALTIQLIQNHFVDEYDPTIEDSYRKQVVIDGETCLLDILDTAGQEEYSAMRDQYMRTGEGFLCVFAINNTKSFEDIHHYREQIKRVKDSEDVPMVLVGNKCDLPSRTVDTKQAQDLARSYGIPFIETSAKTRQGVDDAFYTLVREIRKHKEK
Protocol: (§1) When RAS proteins are in the active GTP-bound conformation, they bind the effector protein RAF1 at the N-terminus Ras-binding domain (RBD, residues 52-131) (Tran, et al., 2021). Homogenous time resolved fluorescence (HTRF) was used to monitor the interaction between wt or mutant KRAS and RAF1 or wt NRAS and RAF1. Compounds were assayed in the presence of KRAS G12D/V and RAF1 versus wt KRAS to assess activity against mutant and w.t. KRAS. Similarly, compounds were then assayed in the presence of w.t. NRAS and RAF1 to assess RAS isoform selectivity. In all assay formats, His-tagged RAF1 protein was incubated with the HTRF donor, anti-6His Tb Cryptate gold (Cisbio 61DB10RDF), and biotinylated RAS proteins were incubated with the HTRF acceptor, streptavidin-d2 (CisBio 610SADLA). The intensity of the fluorescence signal emitted is proportional to binding between the two proteins. The donor solution was prepared by mixing 16 nM His-tagged RAF1 in protein dilution buffer with 1:100 anti-6His Tb cryptate in PPI-Terbium detection buffer. 16 nM biotinylated RAS protein was diluted into protein dilution buffer (50 mM Tris-HCl pH 7.5, 150 mM NaCl, 0.1 mM MgCl2, 1 mM TCEP, 0.005% Tween20) and mixed with 1:2000 Streptavidin-d2 diluted in PPI-Terbium detection buffer (CisBio 61DB10RDF). 50× compound in DMSO was mixed with 16 nM KRAS-acceptor solution and incubated for 30 minutes at room temperature. After compound pre-incubation with KRAS, the RAF1 donor solution was added to the KRAS-acceptor solution and incubated for 1 hour at room temperature. The fluorescence signal emitted was monitored at 665 nm and 615 nm using an Envision multimode plate reader. The HTRF ratio (665/615) was calculated and normalized to 0% inhibition in the absence of compound and 100% inhibition in the presence of untagged RAF1 protein. PPI KRAS G12D/RAF1, KRAS G12V/RAF1, w.t. KRAS/RAF1 and NRAS/RAF1 IC50 (uM) values of selected compounds are depicted in Table 3 and Table 4 with compounds having a value <0.1 uM as ++++; ≥0.1 uM to 1 uM as +++; ≥1 uM to 10 uM as ++; ≥10 uM to 100 uM as +; and ≥100 uM as NA.

NRAS/RAF1 = molecular target: T2, NRAS/RAF1 (Homo sapiens, UniProt P01111); test: Protein-protein interaction (PPI) HTRF assay w.t. NRAS/RAF1; type: binding; conditions: Table 3; wt NRAS/RAF1
T2 construct: (1-169); His6-SUMO (N, cleaved yes)
T2 sequence (P01111 with tags, fused parts or gaps): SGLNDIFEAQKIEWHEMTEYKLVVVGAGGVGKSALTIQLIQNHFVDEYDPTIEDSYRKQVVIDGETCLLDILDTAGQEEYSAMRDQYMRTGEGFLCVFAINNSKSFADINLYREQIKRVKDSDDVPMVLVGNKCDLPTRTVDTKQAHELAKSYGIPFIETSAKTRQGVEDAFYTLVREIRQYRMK
Protocol: as §1

phospho-ERK in AGS cells = test: pERK In Cell Western (ICW) assay (Method B), AGS; type: cell-based; conditions: Homo sapiens, Table 2, 3 hours
Protocol: pERK ICW is a high throughput screening assay to evaluate the cellular potency of mutant KRAS small molecule inhibitors. KRAS mutant cell lines AGS, GP2D (KRAS-G12D) as well as SW620 (KRAS-G12V) were purchased from ATCC and maintained respectively in RPMI/DMEM/RPMI medium supplemented with 10% fetal bovine serum.
Cells grown in exponential phase were trypsinized, resuspended in fresh media, and viable cells were counted using a cell counter with Trypan Blue (BioRad TC20). Cells were seeded into 384-well plate (Greiner 781091) at density of 5,000 cells/well for AGS and 10,000 cells/well for GP2D/SW620 and allowed to grow overnight in a 37° C. CO2 incubator. The next day, compounds were dispensed into wells with a ½ log, 9-point serial dilution using a Tecan D300e dispenser and incubated for 3 hours in a 37° C. CO2 incubator. Cells were then fixed with paraformaldehyde (Electron Microscopy Sciences, 15710, 4% final concentration) for 30 min, permeabilized with wash buffer (1×PBS+0.1% Triton X-100) for 30 min and blocked with Odyssey blocking buffer (Li—COR 927-70001) for 1 hour, all at room temperature (RT). Phospho-ERK antibody (CST 4370L) was diluted 1:500 in Odyssey T20 (PBS) antibody diluent (Li—COR 927-75001) and incubated with cells overnight at 4° C. The next day, plates were washed 5× with wash buffer, incubated with IRDye 800 CW, Goat anti-Rabbit secondary antibody (Li—COR 926-32211, 1:800) and DRAQ5 (CST 4084L, 1:5,000) diluted in Odyssey T20 (PBS) antibody diluent for 1 hour, washed 5×, and imaged on an Odyssey CLx imaging system.
For data analysis, signal intensities from 800 (phosphor-ERK) and 700 (DRAQ5) channels were extracted, and phospho-ERK signals were normalized to DRAQ5 signals for each well and percent of blank control values were computed. Data were then imported into Graphpad Prism to compute half-maximal inhibitory concentrations (IC50) using a 4-parameter variable slope model. Z-factor for each plate was computed from signals derived from wells treated with either DMSO or 5 μM of control compound. AGS pERK ICW (Method B) IC50 (uM) values of selected compounds are depicted in Table 2 with compounds having a value ≥0.001 uM to 0.01 uM as ++++; ≥0.01 uM to 0.1 uM as +++; ≥0.1 uM to 1 uM as ++; ≥1 uM to 10 uM as + and ≥10 uM as NA.

Chain of GST-tagged KRAS-G12D (2-169) (P01116 2-169 isoform P01116-2 G12D): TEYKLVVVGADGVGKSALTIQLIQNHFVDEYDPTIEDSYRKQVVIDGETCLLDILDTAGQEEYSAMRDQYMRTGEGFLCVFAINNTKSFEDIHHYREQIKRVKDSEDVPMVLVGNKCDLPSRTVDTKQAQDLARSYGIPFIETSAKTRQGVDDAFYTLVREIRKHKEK

Row | Compound | IC50 [1] [µM] | IC50 (KRAS G12D/RAF1) [µM] | IC50 (NRAS/RAF1) [µM] | IC50 (phospho-ERK in AGS cells) [µM]
1 | N#Cc1c(N)sc(Cl)c1C1CCN(c2nc(OCC3(CN4CCOCC4)CC3)nc(N3C[C@H]4CC[C@@H](C3)N4)n2)C1 (stereo partly drawn) [Compound 4, 2-amino-5-chloro-4-[1-[4-[[1-(morpholinomethyl)cyclopropyl]methoxy]-6-[(1R,5S)-3,8-diazabicyclo[3.2.1]octan-3-yl]-1,3,5-triazin-2-yl]pyrrolidin-3-yl]thiophene-3-carbonitrile] | < 0.01 | 1 to 10 | > 100 | 1 to 10
2 | CN(C)C(=O)c1nn2c(c1Cl)CN(c1nc(OC[C@@]34CCCN3C[C@H](F)C4)nc(N3CC4(CCc5sc(N)c(C#N)c54)C3)n1)CCC2 [Compound 5, 5-[4-(2-amino-3-cyano-spiro[5,6-dihydrocyclopenta[b]thiophene-4,3′-azetidine]-1′-yl)-6-[[(2R,8S)-2-fluoro-1,2,3,5,6,7-hexahydropyrrolizin-8-yl]methoxy]-1,3,5-triazin-2-yl]-3-chloro-N,N-dimethyl-4,6,7,8-tetrahydropyrazolo[1,5-a][1,4]diazepine-2-carboxamide] | < 0.01 | 10 to 100 | > 100 | 0.1 to 1
